Reference: PubChem BioAssay AID248 (DTP/NCI, 2004)
“And” between values parts separate entries of the source, which are not always exact repeats. Equal values may be shown once. Toxic doses and inconclusive results are not listed. No stated cut-off is given here; in the data, active means T/C of 150% or more; inactive means T/C below 125%.

System: L1210 leukemia ip in BDF1 mice, survival T/C
Experiment: NCI In Vivo Anticancer Drug Screen. Data for tumor model L1210 Leukemia (intraperitoneal) in B6D2F1 (BDF1) mice
Settings: endpoint: mean survival time, higher = longer survival
How it was run: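 Transplanted-tumor mice were given test agent; controls received vehicle only. Survival readings from the two groups were divided (treated over control).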

[1] = dose: 100.0 mg/kg/injection, schedule: Q04DX003 (ip), vehicle: saline
[2] = dose: 100.0 mg/kg/injection, schedule: Q01DX009 (ip), vehicle: Klucel (hydroxypropylcellulose) (HPC)
[3] = dose: 200.0 mg/kg/injection, schedule: Q01DX009 (ip), vehicle: Klucel (hydroxypropylcellulose) (HPC)
[4] = dose: 400.0 mg/kg/injection, schedule: Q01DX009 (ip), vehicle: Klucel (hydroxypropylcellulose) (HPC)
[5] = dose: 100.0 mg/kg/injection, schedule: Q01DX001 (ip), vehicle: saline
[6] = dose: 100.0 mg/kg/injection, schedule: Q01DX001 (ip), vehicle: carboxymethylcellulose (CMC)
[7] = dose: 200.0 mg/kg/injection, schedule: Q01DX001 (ip), vehicle: carboxymethylcellulose (CMC)
[8] = dose: 400.0 mg/kg/injection, schedule: Q01DX001 (ip), vehicle: carboxymethylcellulose (CMC)
[9] = dose: 12.5 mg/kg/injection, schedule: Q01DX009 (ip), vehicle: Klucel (hydroxypropylcellulose) (HPC)
[10] = dose: 25.0 mg/kg/injection, schedule: Q01DX009 (ip), vehicle: Klucel (hydroxypropylcellulose) (HPC)
[11] = dose: 50.0 mg/kg/injection, schedule: Q01DX009 (ip), vehicle: Klucel (hydroxypropylcellulose) (HPC)
[12] = dose: 50.0 mg/kg/injection, schedule: Q01DX001 (ip), vehicle: saline

Measured: T/C

CCCCCC(CN(C)C)C(O)/C=C/c1ccccc1Cl (stereo unspecified)
inactive: dose: 25.0 mg/kg/injection, schedule: Q01DX009 (ip), vehicle: saline 102 % of control | dose: 25.0 mg/kg/injection, schedule: Q04DX003 (ip), vehicle: saline 96 % of control | dose: 50.0 mg/kg/injection, schedule: Q01DX009 (ip), vehicle: saline 94 % of control | dose: 50.0 mg/kg/injection, schedule: Q04DX003 (ip), vehicle: saline 97 % of control | [1] 95 % of control and 88 % of control

Cc1cc(=O)n2c3c(c(N)ccc13)OC2
inactive: [2] 108 % of control | dose: 100.0 mg/kg/injection, schedule: Q04DX003 (ip), vehicle: Klucel (hydroxypropylcellulose) (HPC) 93 % of control | [3] 97 % of control | dose: 200.0 mg/kg/injection, schedule: Q04DX003 (ip), vehicle: Klucel (hydroxypropylcellulose) (HPC) 100 % of control | [4] 93 % of control | dose: 400.0 mg/kg/injection, schedule: Q04DX003 (ip), vehicle: Klucel (hydroxypropylcellulose) (HPC) 97 % of control

O=c1[nH]c(=O)n(C2OC(CO)C(O)C2O)c2ccccc12 (stereo unspecified)
inactive: [5] 102 % of control | dose: 200.0 mg/kg/injection, schedule: Q01DX001 (ip), vehicle: saline 93 % of control | dose: 400.0 mg/kg/injection, schedule: Q01DX001 (ip), vehicle: saline 93 % of control

CCOP(=O)(NCCc1ccccc1)OCC
inactive: dose: 50.0 mg/kg/injection, schedule: Q01DX001 (ip), vehicle: carboxymethylcellulose (CMC) 109 % of control | [6] 109 % of control | [7] 101 % of control

CCN(CC)Cc1cc(N)ccc1O
inactive: dose: 100.0 mg/kg/injection, schedule: Q01DX009 (ip), vehicle: saline 106 % of control | dose: 200.0 mg/kg/injection, schedule: Q01DX009 (ip), vehicle: saline 89 % of control

O=C1c2ccccc2-c2cc(Cl)c(N=Cc3ccc4c(c3)OCO4)cc21
inactive: [6] 98 % of control | [7] 102 % of control | [8] 109 % of control

CCCCN(CCCC)CCCNC(=S)Nc1ccccc1
inactive: [2] 94 % of control | [3] 100 % of control

Cc1ccc(Nc2n[nH]c(=S)s2)cc1F
inactive: dose: 75.0 mg/kg/injection, schedule: Q01DX001 (ip), vehicle: other 100 % of control | dose: 150.0 mg/kg/injection, schedule: Q01DX001 (ip), vehicle: other 100 % of control | dose: 300.0 mg/kg/injection, schedule: Q01DX001 (ip), vehicle: other 100 % of control

N=C(N)SCC(CSC(=N)N)c1cnnc2ccccc12 (stereo unspecified)
inactive: [5] 102 % of control

CC1(c2ccco2)C(=O)NC(=O)N1C(=O)CCl (stereo unspecified)
inactive: dose: 100.0 mg/kg/injection, schedule: Q01DX009 (ip), vehicle: saline with Tween-80 112 % of control | dose: 100.0 mg/kg/injection, schedule: Q04DX003 (ip), vehicle: saline with Tween-80 96 % of control | dose: 200.0 mg/kg/injection, schedule: Q01DX009 (ip), vehicle: saline with Tween-80 101 % of control | dose: 200.0 mg/kg/injection, schedule: Q04DX003 (ip), vehicle: saline with Tween-80 103 % of control | dose: 400.0 mg/kg/injection, schedule: Q04DX003 (ip), vehicle: saline with Tween-80 101 % of control

N#CSCc1c(Cl)c(Cl)c(CSC#N)c(Cl)c1Cl
inactive: dose: 75.0 mg/kg/injection, schedule: Q01DX009 (ip), vehicle: saline 96 % of control | dose: 150.0 mg/kg/injection, schedule: Q01DX009 (ip), vehicle: saline 94 % of control | dose: 300.0 mg/kg/injection, schedule: Q01DX009 (ip), vehicle: saline 93 % of control

O=C(O)C1(C(=O)O)CC23CCC2(C1)CC(C(=O)O)(C(=O)O)C3 (stereo unspecified)
inactive: [1] 95 % of control | dose: 200.0 mg/kg/injection, schedule: Q04DX003 (ip), vehicle: saline 97 % of control | dose: 400.0 mg/kg/injection, schedule: Q04DX003 (ip), vehicle: saline 103 % of control

OC1CCC2NCCCC2C1 (stereo unspecified)
inactive: dose: 75.0 mg/kg/injection, schedule: Q01DX001 (ip), vehicle: carboxymethylcellulose (CMC) 101 % of control | dose: 150.0 mg/kg/injection, schedule: Q01DX001 (ip), vehicle: carboxymethylcellulose (CMC) 103 % of control

ClCC1=NCCCN1
inactive: dose: 3.13 mg/kg/injection, schedule: Q01DX009 (ip), vehicle: Klucel (hydroxypropylcellulose) (HPC) 93 % of control | dose: 6.25 mg/kg/injection, schedule: Q01DX009 (ip), vehicle: Klucel (hydroxypropylcellulose) (HPC) 97 % of control | [9] 97 % of control | dose: 12.5 mg/kg/injection, schedule: Q04DX002 (ip), vehicle: Klucel (hydroxypropylcellulose) (HPC) 97 % of control | [10] 97 % of control | dose: 25.0 mg/kg/injection, schedule: Q04DX002 (ip), vehicle: Klucel (hydroxypropylcellulose) (HPC) 104 % of control | [11] 97 % of control | dose: 50.0 mg/kg/injection, schedule: Q04DX002 (ip), vehicle: Klucel (hydroxypropylcellulose) (HPC) 104 % of control | dose: 100.0 mg/kg/injection, schedule: Q04DX002 (ip), vehicle: Klucel (hydroxypropylcellulose) (HPC) 98 % of control

O=C(Nc1cc(C(F)(F)F)ccc1Cl)Nc1cc(Cl)c(Oc2ccc(Cl)cc2)cc1S(=O)(=O)O
inactive: dose: 100.0 mg/kg/injection, schedule: Q04DX003 (ip), vehicle: saline sonified 105 % of control | dose: 200.0 mg/kg/injection, schedule: Q04DX003 (ip), vehicle: saline sonified 100 % of control

CN(C)S(=O)(=O)c1ccc(CCCCCCc2ccc(S(=O)(=O)N(C)C)cc2)cc1
inactive: [6] 96 % of control | [7] 102 % of control | [8] 91 % of control

CCN(CC)c1ccc(N=Nc2cc(Cl)ccc2Cl)c(NC(=O)CSC(C)=O)c1
inactive: [2] 110 % of control | [3] 101 % of control | [4] 97 % of control

CCc1ccc(NC(=O)Nc2ccc(OC)cc2)cc1
inactive: dose: 100.0 mg/kg/injection, schedule: Q01DX009 (ip), vehicle: gum acacia 97 % of control | dose: 100.0 mg/kg/injection, schedule: Q04DX003 (ip), vehicle: gum acacia 95 % of control | dose: 200.0 mg/kg/injection, schedule: Q01DX009 (ip), vehicle: gum acacia 92 % of control | dose: 200.0 mg/kg/injection, schedule: Q04DX003 (ip), vehicle: gum acacia 92 % of control | dose: 400.0 mg/kg/injection, schedule: Q01DX009 (ip), vehicle: gum acacia 91 % of control | dose: 400.0 mg/kg/injection, schedule: Q04DX003 (ip), vehicle: gum acacia 94 % of control

CCCCN(CCCC)CCCNc1c2c(nc3ccccc13)CCCC2
inactive: dose: 5.0 mg/kg/injection, schedule: Q01DX001 (ip), vehicle: saline 95 % of control | dose: 10.0 mg/kg/injection, schedule: Q01DX001 (ip), vehicle: saline 95 % of control | dose: 20.0 mg/kg/injection, schedule: Q01DX001 (ip), vehicle: saline 93 % of control | dose: 40.0 mg/kg/injection, schedule: Q01DX001 (ip), vehicle: saline 89 % of control | [12] 91 % of control | dose: 80.0 mg/kg/injection, schedule: Q01DX001 (ip), vehicle: saline 93 % of control

CC1C(N)CC2CC1C2(C)C (stereo unspecified)
inactive: dose: 12.5 mg/kg/injection, schedule: Q04DX002 (ip), vehicle: saline 113 % of control | dose: 25.0 mg/kg/injection, schedule: Q04DX002 (ip), vehicle: saline 102 % of control | dose: 50.0 mg/kg/injection, schedule: Q04DX002 (ip), vehicle: saline 102 % of control

Cc1ccc([PH+](c2ccc(C)cc2)c2ccc(C)cc2)cc1.Cc1ccc([PH+](c2ccc(C)cc2)c2ccc(C)cc2)cc1.[Cl][Hg][Cl]
inactive: [11] 86 % of control | [2] 91 % of control | [3] 86 % of control

O=C(Nc1cc([N+](=O)[O-])ccc1Cl)N(Cc1ccccc1)c1ccccc1
inactive: [9] 94 % of control and 95 % of control | [10] 94 % of control and 97 % of control | [11] 89 % of control

c1ccc(CCc2nccc3ccccc23)cc1
inactive: dose: 75.0 mg/kg/injection, schedule: Q01DX001 (ip), vehicle: saline 96 % of control | dose: 150.0 mg/kg/injection, schedule: Q01DX001 (ip), vehicle: saline 97 % of control

CN(C)CCCN1CC2C3CCCCC3=C3CCCCC3C2C1 (stereo unspecified)
inactive: [12] 98 % of control

CCCC(=O)CCN(C)Cc1ccccc1
inactive: [5] 103 % of control

O=C(COc1ccc(Cl)cc1C(=O)O)NCc1ccc([N+](=O)[O-])cc1
inactive: dose: 75.0 mg/kg/injection, schedule: Q01DX009 (ip), vehicle: Klucel (hydroxypropylcellulose) (HPC) 106 % of control | dose: 150.0 mg/kg/injection, schedule: Q01DX009 (ip), vehicle: Klucel (hydroxypropylcellulose) (HPC) 104 % of control | dose: 300.0 mg/kg/injection, schedule: Q01DX009 (ip), vehicle: Klucel (hydroxypropylcellulose) (HPC) 101 % of control
